Results published in patent publication US20260274814A1, “THIENYL COMPOUNDS FOR THE TREATMENT OF A CENTRAL NERVOUS SYSTEM DISEASE OR DISORDER” (Coreterra Therapeutics, Inc., priority 2023, published 2026).
Where a name gives a salt, the structure may show the parent alone.

System: mice
Experiment: Neuropharmacological Assay (SmartCube): automated behavioral signature of compound-treated mice compared with a database of reference drug classes
Type: in vivo
Conditions: for MED (minimal effective dose) / minimal effective dose: dose having 45% or more total activity in SmartCube, i.p., if only one dose was tested, that dose is shown; for AG / AN / AP / HL / PS / SH / UK / AD / AX / CE / MS: probability that activity matches this class of agents, 3.0 mg/kg i.p., 15 min before test; for minimal effective dose: Mus musculus, ip, read-out: MED (minimal effective dose)
Text: Neurosci. 2011 Sep. 9; 5: 103 (doi: 10.3389/fnins.2011.00103) (“Roberds”). As reported in Roberds, because psychiatric diseases generally result from disorders of cell-cell communication or circuitry, intact systems are useful in detecting improvement in disease-relevant endpoints. These endpoints are typically behavioral in nature, often requiring human observation and interpretation. To facilitate testing of multiple compounds for behavioral effects relevant to psychiatric disease, PsychoGenics, Inc. (Tarrytown, NY, “PGI”) developed SmartCube™ an automated system in which behaviors of compound-treated mice are captured by digital video and analyzed with computer algorithms. (D. Brunner et al. Drug Discov. Today 2002, 7:S107-S112). PGI Analytical Systems uses data from SmartCube™ to compare the behavioral signature of a test compound to a database of behavioral signatures obtained using a large set of diverse reference compounds. (The composition of the database as well as validation of the method is further described in Roberds). In this way, the neuropharmacological effects of a test compound can be predicted by similarity to major classes of compounds, such as antipsychotics, anxiolytics and antidepressants.
The SmartCube™ system produces an activity signature indicating the probability that the activity of the test compound at the administered dose matches a given class of neuropharmacological agents. (See, e.g., Roberds, FIGS. 2 and 3). The test compound is simultaneously compared against multiple classes of agents; thus, a separate probability is generated for each behavioral effect measured (e.g., anxiolytic activity, analgesic activity, etc.). In table 2 below, these probabilities are reported for each behavioral effect measured as described in Table 1 below.
Provided compounds were dissolved in a mixture of Pharmasolve™ (N-methyl-2-pyrrolidone), polyethylene glycol and propylene glycol, and were injected i.p. 15 min. before the behavioral test. For each compound, injections were administered at 3 different doses. For each behavioral effect measured, results for the 3.0 mg/kg dose are presented. The potency of many of the compounds in the table was also determined in the SmartCube™ system. Test compounds were routinely examined at dose levels of 0.3, 1, 3 and 10 mg per kg (mpk), although the dose range was increased or decreased, if necessary, to obtain a full dose response curve. A compound's minimal effective dose (MED) is a measure of the compound's potency. The MED was defined as the dose (in mpk) having 45% or more total activity in SmartCube. If only one dose was tested, that dose is shown in the MED column of Table 2 even though the dose is not known to be the MED.

SMILES | MED (minimal effective dose) (hydrochloride) [mpk] | AG | AN | AP | HL | PS | SH | UK | AD (hydrochloride, 3 mg/kg) | AX (hydrochloride, 3 mg/kg) | MS (hydrochloride, 3 mg/kg) | CE | MS | AP (hydrochloride, 3 mg/kg) | other results
CNC1(C)CCc2ccsc2C1 (single isomer, unassigned) [Compound 49, N, 6-dimethyl-5,7-dihydro-4H-benzothiophen-6-amine hydrochloride] | 1.0 | ND (^ <4%) | ND (^ <4%) | ND (^ <4%) | ND (^ <4%) | ND (^ <4%) | ND (^ <4%) | ND (^ <4%) | ++ (≥24%) | ++ (≥24%) | + (≥4%) |  |  |  | CE (hydrochloride, 3 mg/kg): + (≥4%)
CNC1(C)CCc2ccsc2C1 (single isomer, unassigned) [Compound 50, N, 6-dimethyl-5,7-dihydro-4H-benzothiophen-6-amine hydrochloride] | 3.0 | ND (^ <4%) | ND (^ <4%) | ND (^ <4%) | ND (^ <4%) | ND (^ <4%) | ND (^ <4%) | ND (^ <4%) | +++ (≥49%) | ND (^ <4%) | ND (^ <4%) |  |  |  | CE (hydrochloride, 3 mg/kg): ND (^ <4%)
CNC1COc2cscc2C1 (single isomer, unassigned) [Compound 51, N-methyl-3,4-dihydro-2H-thieno[3,4-b]pyran-3-amine hydrochloride] | >10 | ND (^ <4%) | ND (^ <4%) |  | ND (^ <4%) | ND (^ <4%) | ND (^ <4%) | + (≥4%) |  | ND (^ <4%) |  | ND (^ <4%) | ND (^ <4%) | ND (^ <4%) | AD: ND (^ <4%)
CNC1COc2cscc2C1 (single isomer, unassigned) [Compound 52, N-methyl-3,4-dihydro-2H-thieno[3,4-b]pyran-3-amine hydrochloride] | 3.0 | ND (^ <4%) | ND (^ <4%) |  | ND (^ <4%) | ND (^ <4%) | ND (^ <4%) | + (≥4%) |  | ++ (≥24%) |  | ND (^ <4%) | ND (^ <4%) | +++ (≥49%) | AD: ND (^ <4%)
CNC1CCc2csc(Cl)c2C1 (single isomer, unassigned) [Compound 55, 3-chloro-N-methyl-4,5,6,7-tetrahydro-2-benzothiophen-5-amine hydrochloride] |  | ND (^ <4%) |  | ++ (≥24%) | ND (^ <4%) | ND (^ <4%) | ND (^ <4%) | ND (^ <4%) | ++ (≥24%) | + (≥4%) |  | ND (^ <4%) | ND (^ <4%) |  | minimal effective dose: 1 mg/kg; AN (hydrochloride, 3 mg/kg): ND (^ <4%)
CNC1CCc2csc(Cl)c2C1 (single isomer, unassigned) [Compound 56, 3-chloro-N-methyl-4,5,6,7-tetrahydro-2-benzothiophen-5-amine hydrochloride] |  | ND (^ <4%) |  | ++ (≥24%) | ND (^ <4%) | ND (^ <4%) | ND (^ <4%) | ND (^ <4%) | ND (^ <4%) | ++ (≥24%) |  | ND (^ <4%) | ND (^ <4%) |  | MED (minimal effective dose): 1.0 mpk; AN (hydrochloride, 3 mg/kg): + (≥4%)
CNC1CCc2c(csc2Cl)C1 (single isomer, unassigned) [Compound 57, 1-chloro-N-methyl-4,5,6,7-tetrahydro-2-benzothiophen-5-amine hydrochloride] |  | ND (^ <4%) | ND (^ <4%) |  | ND (^ <4%) | ND (^ <4%) | ND (^ <4%) |  | ++ (≥24%) |  | ND (^ <4%) | ND (^ <4%) |  | ++ (≥24%) | minimal effective dose: 1 mg/kg; AX: ND (^ <4%); UK (hydrochloride, 3 mg/kg): + (≥4%)
